Experimental data taken from patent publication US7842695B2, “Substituted pyrazole compounds” (Merck Patent GmbH, priority 2003, dated 2010).

Legend:
[1] = biological target: 5-HT2A receptors (UniProt P14842); test: in-vitro affinity to 5-HT2A receptors, [3H]ketanserine displacement (Example A1); assay type: binding
From the text: The 5-HT2A receptors are exposed both to [^3H]ketanserine (a substance known for its affinity to the receptor) and also to the test compound. The decrease in the affinity of [^3H]ketanserine to the receptor is an indication of the affinity of the test substance to the 5-HT2A receptor.

[2] = biological target: T1, 5 HT2C receptor (Homo sapiens, UniProt P28335); test: affinity to the 5 HT2C receptor; assay type: binding
T1 sequence (P28335 33-458): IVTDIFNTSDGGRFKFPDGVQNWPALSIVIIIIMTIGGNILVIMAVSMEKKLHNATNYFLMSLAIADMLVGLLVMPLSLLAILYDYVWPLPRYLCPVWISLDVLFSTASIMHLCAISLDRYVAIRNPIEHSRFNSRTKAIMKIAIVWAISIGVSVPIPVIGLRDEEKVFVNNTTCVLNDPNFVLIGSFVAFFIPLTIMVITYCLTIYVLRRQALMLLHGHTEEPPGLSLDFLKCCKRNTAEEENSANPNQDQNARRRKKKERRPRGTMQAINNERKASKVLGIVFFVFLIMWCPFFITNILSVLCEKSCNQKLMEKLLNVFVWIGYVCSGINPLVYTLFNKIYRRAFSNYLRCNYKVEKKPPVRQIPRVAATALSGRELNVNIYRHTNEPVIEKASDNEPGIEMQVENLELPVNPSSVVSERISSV

What does the source list for `COc1ccc(-c2c(CN3CCN(CCN(C)C)CC3)cnn2-c2ccc(-c3ccc(F)cc3)cc2)cc1` [Example 607, (2-{4-[1-(4′-Fluorobiphenyl-4-yl)-5-(4-methoxyphenyl)-1H-pyrazol-4-ylmethyl]-1-piperazinyl}ethyl)dimethylamine]?
IC50 [1]: 29 nM; IC50 [2]: 1000 nM

With `CCN1CCN(Cc2cnn(-c3ccc(-c4ccc(F)cc4)cc3)c2-n2cccc2)CC1` [Example 613, 1-Ethyl-4-[1-(4′-fluorobiphenyl-4-yl)-5-pyrrol-1-yl-1H-pyrazol-4-ylmethyl]piperazine] as the molecule, how does the IC50 [1] read?
Its IC50 is 32 nM.

And the IC50 [2]?
Its IC50 is 1000 nM.

Which results are given for `OC1CCN(Cc2cnn(-c3ccc(-c4ccc5c(c4)OCCO5)cc3)c2-c2ccco2)C1` (centres unmarked) [Example 544, 1-{1-[4-(2,3-Dihydrobenzo-1,4-dioxin-6-yl)phenyl]-5-furan-2-yl-1H-pyrazol-4-ylmethyl}pyrrolidin-3-ol]?
IC50 [1]: 4.3 nM; IC50 [2]: 470 nM

How did the IC50 [1] turn out when `CN(C)CCN(C)Cc1cnn(-c2ccc(-c3ccc(F)cc3)cc2)c1-c1cccc(Cl)c1` [Example 639, N-[5-(3-Chlorophenyl)-1-(4′-fluorobiphenyl-4-yl)-1H-pyrazol-4-ylmethyl]-N,N′,N′-trimethylethane-1,2-diamine] was run?
Its IC50 is 43 nM.

What about the IC50 [2] of the same molecule?
The IC50 was 1000 nM.

For `CN1CCN(Cc2cnn(-c3ccc(-c4ccc(F)cc4)cc3)c2-c2ccsc2)CC1` [Example 556, 1-[1-(4′-Fluorobiphenyl-4-yl)-5-thiophen-3-yl-1H-pyrazol-4-ylmethyl]-4-methylpiperazine], which IC50 [1] is on record?
Its IC50 is 7.8 nM.

And the IC50 [2]?
Its IC50 is 630 nM.

For `CCN(CC)Cc1cnn(-c2ccc(-c3ccc4c(c3)OCO4)cc2)c1-c1ccco1` [Example 602, [1-(4-Benzo-1,3-dioxol-5-ylphenyl)-5-furan-2-yl-1H-pyrazol-4-ylmethyl]diethylamine], which IC50 [1] is on record?
Its IC50 is 26 nM.

What about the IC50 [2] of the same molecule?
Its IC50 is 610 nM.

Which IC50 [1] does the source give for `CN1CCN(Cc2cnn(-c3ccc(-c4cccn4C(=O)OC(C)(C)C)cc3)c2-c2ccccc2F)CC1` [Example 643, tert-Butyl 2-{4-[5-(2-fluorophenyl)-4-(4-methylpiperazin-1-ylmethyl)pyrazol-1-yl]phenyl}pyrrole-1-carboxylate] here?
Its IC50 is 48 nM.

What about the IC50 [2] of the same molecule?
The IC50 was 930 nM.

For `CN1CCN(Cc2cnn(-c3ccc(-c4ccc(N(C)C)cc4)cc3)c2-c2ccccc2F)CC1` [Example 626, {4′-[5-(2-Fluorophenyl)-4-(4-methylpiperazin-1-ylmethyl)pyrazol-1-yl]biphenyl-4-yl}dimethylamine], which IC50 [1] is on record?
The IC50 was 36 nM.

And the IC50 [2]?
Its IC50 is 1000 nM.

Which results are given for `CCN(CC)Cc1cnn(-c2ccc(-c3ccc(OC)cc3)cc2)c1-c1ccco1` [Example 601, Diethyl-[5-furan-2-yl-1-(4′-methoxybiphenyl-4-yl)-1H-pyrazol-4-ylmethyl]amine]?
IC50 [1]: 26 nM; IC50 [2]: 1000 nM

`CN(C)CCCN(C)Cc1cnn(-c2ccc(-c3ccc(F)cc3)cc2)c1-c1ccco1` [Example 659, N-[1-(4′-Fluorobiphenyl-4-yl)-5-furan-2-yl-1H-pyrazol-4-ylmethyl]-N,N′,N′-trimethylpropane-1,3-diamine] was tested. Which IC50 [1] did it give?
Its IC50 is 76 nM.

What about the IC50 [2] of the same molecule?
The IC50 was 810 nM.

With `CCN1CCN(Cc2cnn(-c3ccc(-c4ccc(F)cc4)cn3)c2-c2ccco2)CC1` [Example 583, 1-Ethyl-4-{1-[5-(4-fluorophenyl)pyridin-2-yl]-5-furan-2-yl-1H-pyrazol-4-ylmethyl}piperazine] as the molecule, how does the IC50 [1] read?
Its IC50 is 18 nM.

And the IC50 [2]?
Its IC50 is 1000 nM.

With `COc1ccc(-c2ccc(-n3ncc(CN4CCN(C)CC4)c3-c3ccco3)cc2)cc1` [Example 546, 1-[5-Furan-2-yl-1-(4′-methoxybiphenyl-4-yl)-1H-pyrazol-4-ylmethyl]-4-methylpiperazine] as the molecule, how does the IC50 [1] read?
Its IC50 is 4.8 nM.

What about the IC50 [2] of the same molecule?
The IC50 was 360 nM.

With `CN1CCN(Cc2cnn(-c3ccc(-c4cc(F)c(OC(F)(F)F)c(F)c4)cc3)c2-c2ccccc2F)CC1` [Example 623, 1-[1-(3′,5′-Difluoro-4′-trifluoromethoxybiphenyl-4-yl)-5-(2-fluorophenyl)-1H-pyrazol-4-ylmethyl]-4-methylpiperazine] as the molecule, how does the IC50 [1] read?
The IC50 was 35 nM.

What about the IC50 [2] of the same molecule?
The IC50 was 180 nM.

Which results are given for `COc1ccc(-c2ccc(-n3ncc(CN4CCN(C)CC4)c3-c3ccccc3F)cc2)cc1OC` [Example 644, 1-[1-(3′,4′-Dimethoxybiphenyl-4-yl)-5-(2-fluorophenyl)-1H-pyrazol-4-ylmethyl]-4-methylpiperazine]?
IC50 [1]: 49 nM; IC50 [2]: 1000 nM

For `COc1ccc(-c2ccc(-n3ncc(CN4CCNCC4)c3-c3ccco3)cc2)cc1` [Example 530, 1-[5-Furan-2-yl-1-(4′-methoxybiphenyl-4-yl)-1H-pyrazol-4-ylmethyl]piperazine], which IC50 [1] is on record?
Its IC50 is 1.1 nM.

What about the IC50 [2] of the same molecule?
Its IC50 is 200 nM.

For `COc1ccc(-c2ccc(-n3ncc(CCN4CCC(O)C4)c3-c3ccco3)cc2)cc1` (centres unmarked) [Example 571, 1-{2-[5-Furan-2-yl-1-(4′-methoxybiphenyl-4-yl)-1H-pyrazol-4-yl]ethyl}pyrrolidin-3-ol], which IC50 [1] is on record?
The IC50 was 12 nM.

What about the IC50 [2] of the same molecule?
The IC50 was 800 nM.

What does the source list for `Fc1cccc(-c2ccc(-n3ncc(CN4CCN(C5CCCC5)CC4)c3-c3ccco3)cc2)c1` [Example 605, 1-Cyclopentyl-4-[1-(3′-fluorobiphenyl-4-yl)-5-furan-2-yl-1H-pyrazol-4-ylmethyl]piperazine]?
IC50 [1]: 26.8 nM; IC50 [2]: 2940 nM

For `CN1CCN(Cc2cnn(-c3ccc(-c4ccc5c(c4)OCCO5)cc3)c2-c2ccco2)CC1` [Example 535, 1-{1-[4-(2,3-Dihydrobenzo-1,4-dioxin-6-yl)phenyl]-5-furan-2-yl-1H-pyrazol-4-ylmethyl}-4-methylpiperazine], which IC50 [1] is on record?
The IC50 was 2.3 nM.

What about the IC50 [2] of the same molecule?
The IC50 was 350 nM.

`CN1CCN(Cc2cnn(-c3ccc(-c4ccsc4)cc3)c2-c2ccccc2)CC1` [Example 610, 1-Methyl-4-[5-phenyl-1-(4-thiophen-3-ylphenyl)-1H-pyrazol-4-ylmethyl]piperazine] was tested. Which IC50 [1] did it give?
Its IC50 is 31 nM.

And the IC50 [2]?
Its IC50 is 490 nM.

What does the source list for `Fc1ccccc1-c1c(CN2CCNCC2)cnn1-c1ccc(C(F)(F)F)cn1` [Example 588, 1-[5-(2-Fluorophenyl)-1-(5-trifluoromethylpyridin-2-yl)-1H-pyrazol-4-ylmethyl]piperazine]?
IC50 [1]: 20 nM; IC50 [2]: 1000 nM

Which results are given for `CN1CCN(Cc2cnn(-c3ccc(-c4ccc(F)cc4)cn3)c2-c2ccco2)CC1` [Example 590, 1-{1-[5-(4-Fluorophenyl)pyridin-2-yl]-5-furan-2-yl-1H-pyrazol-4-ylmethyl}-4-methylpiperazine]?
IC50 [1]: 20 nM; IC50 [2]: 1000 nM

Which results are given for `CCN1CCN(Cc2cnn(-c3ccc(-c4ccc5c(c4)OCCO5)cc3)c2-n2cccc2)CC1` [Example 600, 1-{1-[4-(2,3-Dihydrobenzo-1,4-dioxin-6-yl)phenyl]-5-pyrrol-1-yl-1H-pyrazol-4-ylmethyl}-4-ethylpiperazine]?
IC50 [1]: 26 nM; IC50 [2]: 1000 nM

How did the IC50 [1] turn out when `c1coc(-c2c(CN3CCN(C4CCCC4)CC3)cnn2-c2ccc(-c3ccc4c(c3)OCCO4)cc2)c1` [Example 554, 1-Cyclopentyl-4-{1-[4-(2,3-dihydrobenzo-1,4-dioxin-6-yl)phenyl]-5-furan-2-yl-1H-pyrazol-4-ylmethyl}piperazine] was run?
Its IC50 is 7 nM.

What about the IC50 [2] of the same molecule?
The IC50 was 1300 nM.

`COc1ccccc1-c1c(CN2CCN(C)CC2)cnn1-c1ccc(-c2cc(F)ccc2F)cc1` [Example 660, 1-[1-(2′,5′-Difluorobiphenyl-4-yl)-5-(2-methoxyphenyl)-1H-pyrazol-4-ylmethyl]-4-methylpiperazine] was tested. Which IC50 [1] did it give?
Its IC50 is 77 nM.

And the IC50 [2]?
Its IC50 is 630 nM.

Which results are given for `CN(C)Cc1cnn(-c2ccc(-c3ccc4c(c3)OCCO4)cc2)c1-c1ccco1` [Example 540, {1-[4-(2,3-Dihydrobenzo-1,4-dioxin-6-yl)phenyl]-5-furan-2-yl-1H-pyrazol-4-ylmethyl}dimethylamine]?
IC50 [1]: 3.6 nM; IC50 [2]: 180 nM

How did the IC50 [1] turn out when `CN(C)CCN(C)Cc1cnn(-c2ccc(-c3ccc(F)cc3)cc2)c1-c1ccco1` [Example 635, N-[1-(4′-Fluorobiphenyl-4-yl)-5-furan-2-yl-1H-pyrazol-4-ylmethyl]-N,N′,N′-trimethylethane-1,2-diamine] was run?
The IC50 was 41 nM.

And the IC50 [2]?
Its IC50 is 1000 nM.

With `Cc1ccc(-c2ccc(-n3ncc(CN4CCN(C)CC4)c3-c3ccccc3F)cc2)cc1F` [Example 625, 1-[1-(3′-Fluoro-4′-methylbiphenyl-4-yl)-5-(2-fluorophenyl)-1H-pyrazol-4-ylmethyl]-4-methylpiperazine] as the molecule, how does the IC50 [1] read?
The IC50 was 36 nM.

And the IC50 [2]?
The IC50 was 620 nM.

Which results are given for `CN1CCN(Cc2cnn(-c3ccc(-c4ccc(F)cc4)cc3)c2-c2cccc(Cl)c2)CC1` [Example 619, 1-[5-(3-Chlorophenyl)-1-(4′-fluorobiphenyl-4-yl)-1H-pyrazol-4-ylmethyl]-4-methylpiperazine]?
IC50 [1]: 34 nM; IC50 [2]: 1000 nM

Which IC50 [1] does the source give for `CCN(CC)Cc1cnn(-c2ccc(-c3ccc4c(c3)OCCO4)cc2)c1-c1ccco1` [Example 630, {1-[4-(2,3-Dihydrobenzo-1,4-dioxin-6-yl)phenyl]-5-furan-2-yl-1H-pyrazol-4-ylmethyl}diethylamine] here?
Its IC50 is 38 nM.

What about the IC50 [2] of the same molecule?
Its IC50 is 900 nM.

What does the source list for `CN1CCN(Cc2cnn(-c3ccc(-c4cccc(F)c4)cc3)c2-c2ccco2)CC1` [Example 559, 1-[1-(3′-Fluorobiphenyl-4-yl)-5-furan-2-yl-1H-pyrazol-4-ylmethyl]-4-methylpiperazine]?
IC50 [1]: 8.8 nM; IC50 [2]: 250 nM

Which results are given for `Fc1ccc(-c2ccc(-n3ncc(CN4CCN(C5CCCC5)CC4)c3-c3ccco3)nc2)cc1` [Example 591, 1-Cyclopentyl-4-{1-[5-(4-fluorophenyl)pyridin-2-yl]-5-furan-2-yl-1H-pyrazol-4-ylmethyl}piperazine]?
IC50 [1]: 20 nM; IC50 [2]: 1000 nM
